Data from publication PMC10447463, “Data-mining unveils structure–property–activity correlation of viral infectivity enhancing self-assembling peptides” (Nature Communications, 2023).
Values joined by “and” are separate entries in the source; they are usually repeats but may differ in a detail not shown here. Equal entries are not always repeated. Where two headings read alike, the source gives them in different places.

What was measured:
[1] = system: HIV-1 infection of TZM-bl cells; test: HIV-1 infectivity enhancement assay, β-galactosidase luminescence; format: cell-based; details: for Log10 Infection Rel EF-C: HIV-1 infection of TZM-bl cells; for Log10 Inf. rel. to EF-C: log10 of HIV-1 infection of TZM-bl cells relative to EF-C, Fig S15 source data; for Rel-to EFC / n-fold to virus: Fig S8 panels B, D
[2] = format: physicochemical; design: key to Fibril / Fibril Formation / TEM 2cat / Fibril: 1 = fibrils present; 0 non-fibrillar structures
[3] = β-sheet content by ATR-FT-IR; format: physicochemical
Procedure, shortened: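 Using ATR FT-IR (diamond, 2 cm^-1, 64 scans), lyophilized 1 mg/mL PNF samples gave β-sheet content by a published calculation. Fluorescamine signals of 3 kDa filtrates relative to unfiltered samples, normalised to DMSO as 1, yielded CR in percent.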

[4] = Zeta-potential measurement; format: physicochemical; details: for Zeta-pot. / mV: zeta potential of peptide, Fig S15 source data
Procedure, shortened: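 One-day room-temperature aggregation at 1 mg/mL in PBS (pH 7.4) preceded measurement; samples then went into 1 mM KCl. Triplicates per sample, two independent experiments averaged.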

[5] = Feb2021, Log10 of infectivity relative to EF-C
[6] = Feb2021, figures match the 1.3 µM column
[7] = Feb2021, infectivity enhancement relative to EF-C
[8] = Feb2021, infectivity relative to virus only
[9] = Feb2021, n-fold infectivity relative to EF-C
[10] = infectivity class (low / medium / high) of each library peptide, main list in c1-c6, same classes repeated in sub-lists of sequences containing the hydrophobicity/charge patterns P+,H0,P+,H0,P0,H0,P0, P+,H0,P0,H0,P0,H0,P0, P+,H0,P0,H0
[11] = category derived from the zeta potential
[12] = Feb2021, 1.3 µM value relative to virus only (0 µM)
[13] = Feb2021, n-fold enhancement relative to EF-C
[14] = Feb2021, unrounded values of the 1.3 µM column
[15] = Feb2021 run, infectivity n-fold relative to virus alone
[16] = Feb2021 run, log10 of infectivity relative to EF-C
[17] = Feb2021 run, n-fold infectivity relative to EF-C
[18] = infectivity enhancement relative to EF-C
[19] = infectivity n-fold relative to virus alone

Row | Substance | Log10 of Rel to EFC (Feb2021) [1, 5] | Absolute Infectivity / RLU /s (Feb2021) [1, 6] [RLU /s] | Rel-to EFC (Feb-2021) [1, 7] | n-fold to virus (Feb2021) [1, 8] | Rel-to EFC (Feb-2021) [1, 9] | infectivity [1, 10] | Log10 Inf. rel. to EF-C ([1]; asymmetric std dev errors) | TEM: 1= fibrils, 0= aggregates (micelle), 0.5 = aggregates and fibrils, -1 = nothing obersved, STD prep [2] | FTIR ß-sheet content/ % ([3]; ATR-FT-IR) | Zeta Pot. / mV [4] [mV] | Zeta category ( +1 = if > 4 mV;-1 = if < -4 mV; 0 = -4mV to 4 mV) [4] | Zeta Pot. / mV ([4]; mean, Std Zeta in next column) [mV] | Zeta-pot. / mV [4] [mV] | Rel-to EFC (Feb-2021) [1, 13] | n-fold to virus (Feb2021) [1, 15] | Log10 of Rel to EFC (Feb2021) [1, 16] | Rel-to EFC (Feb-2021) [1, 17] | FTIR ß-sheet content/ % [3] [%] | Zeta category ( +1 = if > 4 mV;-1 = if < -4 mV; 0 = -4mV to 4 mV) ([4]; category from zeta potential) | Zeta Pot. / mV ([4]; mean, Std in separate column) [mV] | also measured
1 | KLKQLL | – | – | – | – | – | – | – | – | – | – | – | – | – | – | – | – | – | – | – | – | Rel-EFC ([1]; 1.3 µM peptide, infection relative to EF-C (QCKIKQIINMWQ = 1)): 0,01; Log10 Infection Rel EFC ([1]; 1.3 µM peptide, log10 of infection relative to EF-C): -2,13; Log Infectivity ([1]; Fig. S7 panel A (plotted against β-sheet content), Log10 infection relative to EF-C, TZM-bl cells, asymmetric std dev errors): -2.131; Log10 Infection Rel EF-C ([1]; Log10 of infection rate relative to EF-C, Figure 3A source data): -2.13; Log10 Infection Rel EF-C ([1]; infection rate relative to EF-C, log10, data of Figure 2D): -2.131; Log10 Infection Rel EF-C ([1]; infection rate relative to EF-C, log10, source data of Figure 2C): -2.131; TEM 2cat ([2]; Fig S10 panel D): 0; TEM 2cat ([2]; FigS12 panel A, fibril category by TEM): 0; Fibril ([2]; FigS12 panel B, TEM): 0; Fibril / Fibril Formation ([2]; TEM, 1 mg/mL, uranyl acetate stain, qualitative): 0; Fibril ([2]; TEM, 1 = fibrils present, 0 = non-fibrillar): 0; Fibril ([2]; TEM, 1 = fibrils present, 0 = non-fibrillar structures): 0; b -sheet / % ([3]; Fig. S7 panel A, β-sheet content by ATR-FT-IR): 31.78%; Zeta-Pot. ([4]; zeta potential of peptide assemblies): -8.46; Zeta-Potential / mV ([4]; zeta-potential of peptide, source data of Figure 2C): -5.682 mV; Zeta-Potential / mV ([4]; zeta-potential of the peptide assemblies, mean, Figure 3A source data): -8.46 mV
2 | KLKQLL [KM27 / psis14] | -2.131 | 196.7 | 0.00739 | 0.3105 | 0.00739 | low | -2.131 | 0.5 | 0% | -8.46 | -1 (-1 = if < -4 mV) | -8.46 | -8.46 | – | – | – | – | – | – | – | Zeta category ( +1 = if > 4 mV;-1 = if < -4 mV; 0 = -4mV to 4 mV) [4, 11]: -1 (-1 = if < -4 mV)
3 | QCKFKFQFNMWQ [CK7] | -0.2086 | – | – | – | 0.6186 | medium | -0.2086 | 1 | 47% and 47.05% | – | 1 (+1 = if > 4 mV) | 21.07 | 21.07 | 0.6186 | 25.99 | -0.2086 | 0.6186 | 47.05 | 1 (+1 = if > 4 mV) | 21.07 | n-fold to virus (Feb2021) [1, 12]: 25.99; Absolute Infectivity / RLU /s (Feb2021) [1, 14]: 19753.33333 RLU /s
4 | QCKFKQFF [CK12] | -1.907 | 170 | 0.01239 | 0.5204 | 0.01239 | low | -1.907 | 1 | 0% | 4.94 | 1 (+1 = if > 4 mV) | 4.94 | 4.94 | – | 0.5204 | -1.907 | 0.01239 | – | – | 4.94 | Zeta category ( +1 = if > 4 mV;-1 = if < -4 mV; 0 = -4mV to 4 mV) [4, 11]: 1 (+1 = if > 4 mV)
5 | QCKFKQFFNM [CK11] | -0.3706 | 5847 | 0.426 | 17.9 | 0.426 | medium | -0.3706 | 0.5 | 42% and 41.84% | 13.67 | 1 (+1 = if > 4 mV) | 13.67 | 13.67 | – | 17.9 | -0.3706 | 0.426 | 41.84 | – | 13.67 | Zeta category ( +1 = if > 4 mV;-1 = if < -4 mV; 0 = -4mV to 4 mV) [4, 11]: 1 (+1 = if > 4 mV)
6 | QCKFKQFFNMWQ [CK10] | -0.606 | – | – | 6.098 | 0.2478 | medium | -0.6059 | 0.5 | 42% and 41.78% | 9.587 | 1 (+1 = if > 4 mV) | 9.587 | 9.587 | 0.2478 | 6.098 | -0.606 | 0.2478 | 41.78 | 1 (+1 = if > 4 mV) | 9.587 | Rel-to EFC [1, 18]: 0.2478; n-fold to virus [1, 19]: 6.098
7 | QCKIKIQINMWQ [EF-C opt] | 0.01546 | – | – | – | 1.036 | high | 0.01546 | 1 | 48% and 48.38% | – | 1 (+1 = if > 4 mV) | 11.73 | 11.73 | 1.036 | 43.54 | 0.01546 | 1.036 | 48.38 | 1 (+1 = if > 4 mV) | 11.73 | n-fold to virus (Feb2021) [1, 12]: 43.54; Absolute Infectivity / RLU /s (Feb2021) [1, 14]: 21221.11111 RLU /s; Rel-to EFC [1, 18]: 1.036; n-fold to virus [1, 19]: 43.54; infectivity ([1]; infectivity class (low / medium / high) of the peptide in the sequence-pattern analysis, Fig. S22-A4, class limits not given): high
8 | RGDCKFKFQF [TM64/ CN15] | -0.8186 | 4637 | – | 6.381 | 0.1519 | medium | -0.8186 | 1 | 47% and 46.68% | 13.87 | 1 (+1 = if > 4 mV) | 13.87 | 13.87 | 0.1519 | – | – | – | – | 1 (+1 = if > 4 mV) | – | –
